From patent US20080051451A1, “Autoimmune conditions and NADPH oxidase defects” (priority 2006, published 2008)
“Also recorded” adds a separate entry of the source.

Key:
[1] = tested on: DA.Ncf1^DA rats; test: Pristane induced arthritis (PIA) in DA.Ncf1^DA rats; assay type: in vivo, Rat (Rattus norvegicus); conditions: for severity of PIA, oral administration in food 500 mg/kg/day: mixed in the food for continuous uptake; for severity of PIA, therapeutic effect: 100 μl subcutaneous injections in the neck at day 8 and 10 after arthritis induction; for severity of PIA, oral administration in food 1% daily: mixed in the food for daily uptake
Description: Treatments with compound 1 (phytol) or compound 5 (phytyl acetate) were administered to DA.Ncf1^DA rats as 100 μl subcutaneous injections in the neck at day 8 and 10 after arthritis induction (untreated control (◯), compound 1 (phytol) (♦) and compound 5 (phytyl acetate) (▴)) (FIG. 9).
Treatments with compound 2 (farnesol) or compound 4 (farnesylacetate) were administered to DA.Ncf1^DA rats as 100 μl subcutaneous injections in the neck at day 8 and 10 after arthritis induction, (untreated control (◯), compound 2 (farnesol) (▪) and compound 4 (farnesylacetate) (▴)) (FIG. 11).
Treatments with compound 1 (phytol), compound 6 (di-hydro-phytol, compound 5 (phytyl acetate), or compound 7 (di-hydro-phytyl acetate were administered to DA.Ncf1^DA rats as 100 μl subcutaneous injections in the neck at day 8 and 10 after arthritis induction, (untreated control (◯), compound 1 (phytol) (♦), compound 6 (di-hydro-phytol (▪), compound 5 (phytyl acetate) (▴) or compound 7 (di-hydro-phytyl acetate (●)) (FIG. 12).
Treatments of DA.Ncf1^DA rats with compound 1 (phytol) mixed in the food for continuous uptake compared with Omega3 fatty acids, (untreated control (◯), Omega3 fatty acid (□), phytol 1% daily (♦), phytol 1% every 2'nd day (▴), or phytol 1% initiated day 7 after arthritis induction (▪)) (FIG. 13).
Treatments of DA.Ncf1^DA rats with compound 5 (phytyl acetate) mixed in the food for daily uptake, (untreated control (◯), compound 1 (phytol) 1% daily (♦), or compound 5 (phytyl acetate) 1% daily (▴)) (FIG. 14).
Treatments with compound 1 (phytol) at 1.6 or 2.3 g/kg/day administered to DA.Ncf1^DA rats by oral gavage given by dosing every second day with compound 1 (phytol) […] (♦), compound 1 (phytol) […] (▴) or untreated control (◯).
Treatments of DA.Ncf1^DA rats with compound 1 (phytol) or compound 9 (isophytol) mixed in the food for continuous uptake compared with fenofibrate, (compound 1 (phytol) 500 mg/kg/day (♦), compound 9 (isophytol) 500 mg/kg/day (▴), or fenofibrate 100 mg/kg/day (□). Untreated control (◯).) (see FIG. 17).

[2] = tested on: HL-60 cells; test: Oxidative burst assay of granulocytes in vitro (isoluminol, extra-cellular ROS); conditions: HL-60 differentiated to granulocytes, 50 minutes, 37° C.
Description: The human myeloma cell line HL-60 (ATCC, CCI-240) was cultured in D-MEM (Gibco, Paisley, UK) complemented with 10% fetal calf serum and Penicillin-Streptomycin. […] Before assaying the cells were washed and resuspended in PBS to a concentration of 10^7 cells/ml.
Briefly, 5 μl of resuspended oils were added into 96-well plates containing 5×10^5 cells/well in a total volume of 200 μl PBS/well (final concentration isoluminol 50 μg/ml; Sigma Aldrich) and horse radish peroxidase (type II 2,5 U/ml; Sigma Aldrich). Samples were gently mixed and the data collection was initiated immediately. Extra-cellular ROS production was followed at 37° C. as produced luminescence signal (FluoStar Optima, BMG Labtechnologies, Offenburg, Germany) and presented as maximal relative signal during a measurement period of 50 minutes.
The cells were differentiated to granulocytes by culture in presence of 1,25% dimethylsulfoxide (DMSO; Sigma Aldrich Inc., Milwaukee, Wis.) for six days.

[3] = tested on: NADPH oxidase; test: Oxidative burst response to PMA in spleen granulocytes after s.c. injection in vivo; design: species or system Rat (Rattus norvegicus); conditions: spleen granulocytes 5 days after s.c. injection (200 μl) in DA.Ncf1^DA rats, PMA stimulation, compared to naive DA.Ncf1^DA and DA.Ncf1^E3
Description: The term DA.Ncf1^DA rats designates DA rats carrying the Ncf1 DA allele with impaired NADPH oxidase capacity and the term DA.Ncf1^E3 rats designates DA rats carrying the Ncf1^E3 allele with functional NADPH oxidase capacity (Olofsson & Holmdahl (2003) Scand J Immunol 58:155-164).
Oxidative burst response to PMA stimulation in vitro in spleen granulocytes taken 5 days after s.c. phytol injection in DA.Ncf1^DA rats (200 μl) compared to naive DA.Ncf1^DA and DA.Ncf1^E3 (n=5) (FIG. 3).

[4] = tested on: DA.Ncf1^DA rats; test: Pristane induced arthritis (PIA) in DA.Ncf1^DA rats; assay type: in vivo, Rat (Rattus norvegicus)
[5] = tested on: Rats heterozygous for the functional Ncf1 (Ncf1^E3) allele with Pia3 locus; test: Pristane induced arthritis (PIA) in rats with a functional oxidative burst; conditions: injected i.p. (200 μl) at the estimated peak of disease
Description: (§1) Disease was induced in all rats at the age of 6-12 weeks. Arthritis development was monitored with a macroscopic scoring system of the four limbs ranging from 0 to 15 (1 point for each swollen or red toe, 1 point for midfoot digit or knuckle, 5 points for a swollen ankle). The scores of the four paws were added yielding a maximum total score of 60 for each rat.
(§2) Therapeutic treatments were administered s.c. or intra peritoneal (i.p.; 200 μl) after onset of disease in the acute or chronic phase (FIG. 6).

[6] = tested on: DA.Ncf1^DA rats; test: Non oil collagen induced arthritis (NOCIA); assay type: in vivo, Rat (Rattus norvegicus)
Description: Non oil collagen induced arthritis (NOCIA) was induced by emulsifying rat CII (300 μg) in a mixture of LPS (50 μg; Sigma Aldrich), CPG (5′-TCCATGACGTTCCTGACGTT-3′; SEQ ID NO:1) (45 μg; MWG-Biotech AG, Ebersberg, Germany) and alum (6 mg; Sigma Aldrich) and injected s.c. in a total volume of 300 μl.
Preventive effect on arthritis of phytol injection (200 μl s.c.) five days prior to induction of NOCIA in DA.Ncf1^DA rats, (control (Δ) and compound 1 (phytol) (▴)).
Delayed type hypersensitivity (DTH) response is abrogated after compound 1 (phytol) injection (FIG. 8B). Day 67 after NOCIA immunization the immune system was challenged by an injection of CII in the ear. Following increase in ear volume was measured and compared to control ear (control n=7 and compound 1 (phytol) n=8).

[7] = tested on: Lewis.IF rat; test: Pristane induced arthritis (PIA) in Lewis.IF rats; conditions: 200 μl s.c. 5 days before induction of PIA
Description: as §1, §2

[8] = Biodistribution of 3H-labelled phytol; assay type: in vivo, Rat (Rattus norvegicus)
Description: DA rats originating from Harlan Netherlands (N=4 rats per group) injected with compound 1 (phytol) mixed with radiolabelled compound 1 (phytol) (Moravek Biochemicals, CA) to a total volume of […] at 167 μCi/rat with ^3H-Phytol. At sacrifice at day 2, 4, 8, 11 and 17, respectively, inguinal lymph nodes, spleen, heart, thymus, kidney, liver, lung, adipose tissue, muscle, injection site tissue and blood were collected in equal amount of saline solution in pre-weight tubes (blood with heparin to prevent coagulation). The tissues were homogenized and mixed with ready-safe scintillation liquid (Beckman Coulter, CA). Biodistribution was estimated as relative CPM per gram tissue.

[9] = tested on: DA.Ncf1^DA rats; test: Collagen induced arthritis (CIA) with oil adjuvant; assay type: in vivo, Rat (Rattus norvegicus)
Description: Collagen induced arthritis (CIA) was induced by an s.c. injection of 100 μl of rat collagen type II (CII; 100 μg/rat-150 μg/rat), emulsified in incomplete Freund's adjuvant (IFA; Sigma Aldrich) (FIG. 7).
Effect of s.c. administration of phytol (200 μl) 5 days.
At day 27 after immunization, sera were taken and analyzed for anti-CII IgG levels (n=7). Titers are relative to pooled positive sera (units).

[10] = Arthritogenicity / arthritis effect (general statement); assay type: in vivo; conditions: general statement in Example 3
[11] = tested on: DA.Ncf1^DA rats; test: Experimental allergic encephalomyelitis (EAE) in vivo; design: species or system Rat (Rattus norvegicus); conditions: 200 μL injected at the base of the tail at day 0; scored 40 days; p<0.01 vs untreated control
Description: At day 0, all rats were treated (immunized) with 200 μL SCH (DA.Ncf1^DA spinal cord homogenate, to induce EAE) i.d. at the base of the tail. The rats were then scored according to the following scale for 40 days: • 0=Normal • 1=Tail weakness • 2=Tail paralysis • 3=Tail paralysis and mild […] • 4=Tail paralysis and severe […] • 5=Tail paralysis and paralysis of one limb • 6=Tail paralysis and paralysis of a pair of limbs • 7=Tetra-paresis • 8=Pre-morbid or dead. […] EAE began to appear around day 6.

[12] = relative CPM per gram tissue, day 2, 4, 8, 11, 17

In the case of `C=CC(C)(O)CCCC(C)CCCC(C)CCCC(C)C` (stereo not drawn) [compound 9, 3,7,11,15-Tetramethyl-1-hexadecen-3-ol], the “severity of PIA, oral administration in food 500 mg/kg/day” value [1] was “reduced the severity of arthritis” and the “Extra-cellular ROS production (maximal relative luminescence signal)” value [2] was “strong ROS production”.

With `C/C(=C\CO)CCCC(C)CCCC(C)CCCC(C)C` (stereo not drawn) [compound 1, 3,7,11,15-Tetramethyl-2-hexadecen-1-ol] the “Oxidative burst / NADPH oxidase capacity in vivo” value [3] was “restores to NADPH oxidase capacity to a level comparable to the level of NADPH oxidase capacity in rats with a functional oxidative burst”, the “Oxidative burst / NADPH oxidase capacity in vivo” value ([3]; listed as Phytol) was “restores the oxidative burst defect in vivo” and the “severity of PIA, oral gavage” value ([4]; both doses, every second day (1.6 and 3.2 mg/kg as printed elsewhere in the source)) was “potent arthritis ameliorating effect”. For the same molecule, the “severity of arthritis, chronic phase of PIA” value ([4]; injected i.p. twice (200 μl) starting day 70, three days between treatments) was “decreases arthritis severity in the chronic phase of arthritis”, the “severity of PIA (arthritis score), preventive” value ([4]; injected s.c. day -5 prior to pristane injection) was “inhibits development of arthritis” and the “cartilage destruction (serum COMP levels)” value ([4]; sera taken day 38, treatment from day 22) was “Cartilage destruction is decreased”. The “severity of arthritis, acute phase of established PIA” value ([4]; two injections (200 μl, s.c. or i.p.) with 5 days in between starting day 22) was “ameliorates disease in the acute phase of arthritis”, the “severity of arthritis in rats with a functional oxidative burst” value [5] was “arthritis ameliorating effect” and the “arthritis severity in NOCIA” value ([6]; 200 μl s.c. five days prior to induction) was “reduces arthritis severity”. The “Delayed type hypersensitivity (DTH) response (increase in ear volume)” value ([6]; CII challenge in the ear day 67 after NOCIA immunization) was “abrogated”, the “severity of PIA, preventive, Lewis.IF rat” value [7] was “arthritis preventing effect” and the “severity of PIA, therapeutic effect” value [1] was “therapeutic effects”. For the same molecule, the “severity of PIA, oral administration in food 500 mg/kg/day” value [1] was “reduced the severity of arthritis”, the “severity of PIA, oral administration in food 1% daily” value [1] was “reducing the severity of arthritis” and the “adverse effect of the high doses (macroscopic observation, postmortem dissection)” value ([1]; oral gavage every second day, both doses) was “No adverse effect”. The “severity of PIA, oral administration in food, three regimes” value ([1]; phytol 1% daily, 1% every 2'nd day, or 1% initiated day 7 after arthritis induction) was “reduced the severity of arthritis”, the “fraction remaining as a depot in the injection site” value ([8]; DA rats, 3H-Phytol injection) was greater than 90% and the “cellular localisation of staining in lymph nodes” value ([8]; rat, in vivo) was “in-between cells or in the cell membrane, i.e. not intracellular”. The “distribution within the draining lymph nodes” value ([8]; rat, in vivo) was “distributed primarily to the cortical regions as well as close to the sinusoidal space of the draining lymph nodes”, the “primary tissue for accumulation” value [8, 12] was “draining lymph nodes were the primary tissue for accumulation” and the “time course of distribution to the inguinal lymph nodes” value [8, 12] was “highest accumulation more than one week after injection and showed a decrease after two weeks”. The “anti-CII antibody (IgG) levels in serum” value ([9]; day 27 after immunization) was “decreases anti-CII antibody levels in serum”, the “severity of collagen-induced arthritis” value ([9]; s.c. administration (200 μl) 5 days before immunization with CII) was “prevents collagen-induced arthritis” and the “Extra-cellular ROS production (maximal relative luminescence signal)” value [2] was “strong ROS production”. The arthritis ameliorating effects [10] was “arthritis ameliorating effects”, the arthritogenicity [10] was “non arthritogenic” and the “severity of inflammatory and paralyzing symptoms of EAE (score 0-8)” value [11] was “significant difference in severity of inflammatory and paralyzing symptoms of EAE”.

In the case of `CC(=O)OC/C=C(\C)CC/C=C(\C)CCC=C(C)C` [compound 4, Acetic acid 3,7,11-trimethyl-dodeca-2,6,10-trienyl ester], the “severity of PIA, therapeutic effect” value [1] was “therapeutic effect comparable to the therapeutic effect of the un-derivatized compound 2”.

In the case of `CC(=O)OCCC(C)CCCC(C)CCCC(C)CCCC(C)C` (stereo not drawn) [compound 7, Acetic acid 3,7,11,15-tetramethyl-hexadecyl ester], the “severity of PIA, therapeutic effect” value [1] was “therapeutic effect comparable to the therapeutic effects of compound 1 and compound 5”.

For `CC(C)=CCC/C(C)=C/CC/C(C)=C/CC/C(C)=C/CO` [compound 3, 3,7,11,15-Tetramethyl-hexada-2,6,10,14-tetraen-1-ol], the “Extra-cellular ROS production (maximal relative luminescence signal)” value [2] was “strong ROS production”, the arthritis ameliorating effects [10] was “arthritis ameliorating effects” and the arthritogenicity [10] was “non arthritogenic”.

In the case of `CC(C)OC(=O)C(C)(C)Oc1ccc(C(=O)c2ccc(Cl)cc2)cc1` [fenofibrate, propan-2-yl 2-[4-(4-chlorobenzoyl)phenoxy]-2-methyl-propanoate, reference compound], the “severity of PIA, oral fenofibrate 100 mg/kg/day” value ([1]; 100 mg/kg/day) was “no effect on the severity of arthritis”.

For `CC(C)CCCC(C)CCCC(C)CCCC(C)CCO` (stereo not drawn) [compound 6, 3,7,11,15-Tetramethyl-hexadecan-1-ol], the “severity of PIA, therapeutic effect” value [1] was “therapeutic effect comparable to the therapeutic effects of compound 1 and compound 5”.

With `CC(=O)OC/C=C(\C)CCCC(C)CCCC(C)CCCC(C)C` (stereo not drawn) [compound 5, Acetic acid 3,7,11,15-tetra-metyl-hexadec-2-enyl-ester] the “severity of PIA, therapeutic effect” value [1] was “therapeutic effect comparable to the therapeutic effect of the un-derivatized compound 1; also recorded: therapeutic effects” and the “severity of PIA, oral administration in food 1% daily” value [1] was “equally effective as oral treatment with compound 1 (phytol) in reducing the severity of arthritis”.

With `CC(C)=CCC/C(C)=C/CC/C(C)=C/CO` [compound 2, 3,7,11-Trimethyl-2,6,10-dodecatrien-1-ol] the “severity of PIA, therapeutic effect” value [1] was “therapeutic effect”, the “Extra-cellular ROS production (maximal relative luminescence signal)” value [2] was “strong ROS production” and the arthritis ameliorating effects [10] was “arthritis ameliorating effects”. The arthritogenicity [10] was “non arthritogenic”.
